According to ChEMBL document CHEMBL1152842, “Synthesis, Raman, FT-IR, NMR spectroscopic data and antimicrobial activity of mixed aza-oxo-thia macrocyclic compounds” (2009):

Legend:
Type in all cases: functional
Staphylococcus aureus [1] = assay: Antibacterial activity against Staphylococcus aureus ATCC 6538 at 10 units after 24 hrs by disk diffusion method
Proteus vulgaris [2] = assay: Antibacterial activity against Proteus vulgaris ATCC 8427 at 10 units after 24 hrs by disk diffusion method
Escherichia coli [3] = assay: Antibacterial activity against Escherichia coli ATCC 11230 at 10 units after 24 hrs by disk diffusion method
Pseudomonas aeruginosa [4] = assay: Antibacterial activity against Pseudomonas aeruginosa ATCC 27853 at 10 units after 24 hrs by disk diffusion method
Listeria monocytogenes [5] = assay: Antibacterial activity against Listeria monocytogenes ATCC 15313 at 10 units after 24 hrs by disk diffusion method
[6] = system: Mycolicibacterium smegmatis; assay: Antibacterial activity against Mycobacterium smegmatis CCM 2067 at 10 units after 24 hrs by disk diffusion method
Bacillus cereus [7] = assay: Antibacterial activity against Bacillus cereus ATCC 7064 at 10 units after 24 hrs by disk diffusion method
Klebsiella pneumoniae [8] = assay: Antibacterial activity against Klebsiella pneumoniae UC57 at 10 units after 24 hrs by disk diffusion method
Micrococcus luteus [9] = assay: Antibacterial activity against Micrococcus luteus La 2971 at 10 units after 24 hrs by disk diffusion method
Staphylococcus aureus [10] = assay: Antibacterial activity against Staphylococcus aureus ATCC 6538 at 30 ug after 24 hrs by disk diffusion method; details: ATCC 6538, 24 h, read-out: IZ
Escherichia coli [11] = assay: Antibacterial activity against Escherichia coli ATCC 11230 at 30 ug after 24 hrs by disk diffusion method; details: ATCC 11230, 24 h, read-out: IZ
Bacillus cereus [12] = assay: Antibacterial activity against Bacillus cereus ATCC 7064 at 30 ug after 24 hrs by disk diffusion method; details: ATCC 7064, 24 h, read-out: IZ
Pseudomonas aeruginosa [13] = assay: Antibacterial activity against Pseudomonas aeruginosa ATCC 27853 at 30 ug after 24 hrs by disk diffusion method; details: ATCC 27853, 24 h, read-out: IZ
Proteus vulgaris [14] = assay: Antibacterial activity against Proteus vulgaris ATCC 8427 at 30 ug after 24 hrs by disk diffusion method; details: ATCC 8427, 24 h, read-out: IZ
Listeria monocytogenes [15] = assay: Antibacterial activity against Listeria monocytogenes ATCC 15313 at 30 ug after 24 hrs by disk diffusion method; details: ATCC 15313, 24 h, read-out: IZ
[16] = system: Mycolicibacterium smegmatis; assay: Antibacterial activity against Mycobacterium smegmatis CCM 2067 at 30 ug after 24 hrs by disk diffusion method; details: CCM 2067, 24 h, read-out: IZ
Klebsiella pneumoniae [17] = assay: Antibacterial activity against Klebsiella pneumoniae UC57 at 30 ug after 24 hrs by disk diffusion method; details: read-out: IZ
Micrococcus luteus [18] = assay: Antibacterial activity against Micrococcus luteus La 2971 at 30 ug after 24 hrs by disk diffusion method; details: read-out: IZ
Staphylococcus aureus [19] = assay: Antibacterial activity against Staphylococcus aureus ATCC 6538 at 1 ug after 24 hrs by disk diffusion method; details: ATCC 6538, 24 h, read-out: IZ
Bacillus cereus [20] = assay: Antibacterial activity against Bacillus cereus ATCC 7064 at 1 ug after 24 hrs by disk diffusion method; details: ATCC 7064, 24 h, read-out: IZ
Klebsiella pneumoniae [21] = assay: Antibacterial activity against Klebsiella pneumoniae UC57 at 1 ug after 24 hrs by disk diffusion method; details: read-out: IZ
Pseudomonas aeruginosa [22] = assay: Antibacterial activity against Pseudomonas aeruginosa ATCC 27853 at 1 ug after 24 hrs by disk diffusion method; details: ATCC 27853, 24 h, read-out: IZ
Micrococcus luteus [23] = assay: Antibacterial activity against Micrococcus luteus La 2971 at 1 ug after 24 hrs by disk diffusion method; details: read-out: IZ
Escherichia coli [24] = assay: Antibacterial activity against Escherichia coli ATCC 11230 at 1 ug after 24 hrs by disk diffusion method; details: ATCC 11230, 24 h, read-out: IZ
Proteus vulgaris [25] = assay: Antibacterial activity against Proteus vulgaris ATCC 8427 at 1 ug after 24 hrs by disk diffusion method; details: ATCC 8427, 24 h, read-out: IZ
[26] = system: Mycolicibacterium smegmatis; assay: Antibacterial activity against Mycobacterium smegmatis CCM 2067 at 1 ug after 24 hrs by disk diffusion method; details: CCM 2067, 24 h, read-out: IZ
Listeria monocytogenes [27] = assay: Antibacterial activity against Listeria monocytogenes ATCC 15313 at 1 ug after 24 hrs by disk diffusion method; details: ATCC 15313, 24 h, read-out: IZ
Listeria monocytogenes [28] = assay: Antibacterial activity against Listeria monocytogenes ATCC 15313 after 24 hrs by twofold serial dilution method
Micrococcus luteus [29] = assay: Antibacterial activity against Micrococcus luteus La 2971 after 24 hrs by twofold serial dilution method
Pseudomonas aeruginosa [30] = assay: Antibacterial activity against Pseudomonas aeruginosa ATCC 27853 after 24 hrs by twofold serial dilution method
[31] = system: Mycolicibacterium smegmatis; assay: Antibacterial activity against Mycobacterium smegmatis CCM 2067 after 24 hrs by twofold serial dilution method
Proteus vulgaris [32] = assay: Antibacterial activity against Proteus vulgaris ATCC 8427 after 24 hrs by twofold serial dilution method
Escherichia coli [33] = assay: Antibacterial activity against Escherichia coli ATCC 11230 after 24 hrs by twofold serial dilution method
Bacillus cereus [34] = assay: Antibacterial activity against Bacillus cereus ATCC 7064 after 24 hrs by twofold serial dilution method
Staphylococcus aureus [35] = assay: Antibacterial activity against Staphylococcus aureus ATCC 6538 after 24 hrs by twofold serial dilution method
Klebsiella pneumoniae [36] = assay: Antibacterial activity against Klebsiella pneumoniae UC57 after 24 hrs by twofold serial dilution method
Rhodotorula mucilaginosa [37] = assay: Antifungal activity against Rhodotorula rubra DSM 70403 at 1 ug after 72 hrs by disk diffusion method
[38] = system: Hanseniaspora guilliermondii; assay: Antifungal activity against Hanseniaspora guilliermondii DSM 3432 at 1 ug after 72 hrs by disk diffusion method
Debaryomyces hansenii [39] = assay: Antifungal activity against Debaryomyces hansenii DSM 70238 after 48 hrs by twofold serial dilution method
Debaryomyces hansenii [40] = assay: Antifungal activity against Debaryomyces hansenii DSM 70238 at 1 ug after 72 hrs by disk diffusion method
Kluyveromyces marxianus [41] = assay: Antifungal activity against Kluyveromyces fragilis NRRL 2415 after 48 hrs by twofold serial dilution method
Candida albicans = assay: Antifungal activity against Candida albicans ATCC 10231 after 48 hrs by twofold serial dilution method
[42] = system: Hanseniaspora guilliermondii; assay: Antifungal activity against Hanseniaspora guilliermondii DSM 3432 after 48 hrs by twofold serial dilution method
Rhodotorula mucilaginosa [43] = assay: Antifungal activity against Rhodotorula rubra DSM 70403 after 48 hrs by twofold serial dilution method
Kluyveromyces marxianus [44] = assay: Antifungal activity against Kluyveromyces fragilis NRRL 2415 at 1 ug after 72 hrs by disk diffusion method

With `CC1(C)S[C@@H]2[C@H](NC(=O)Cc3ccccc3)C(=O)N2[C@H]1C(=O)O` [PENICILLIN G] the “inhibition zone (IZ)” value (Staphylococcus aureus [1]) was 13 mm, the “inhibition zone (IZ)” value (Proteus vulgaris [2]) was 36 mm and the “inhibition zone (IZ)” value (Escherichia coli [3]) was 18 mm. For the same compound, the “inhibition zone (IZ)” value (Pseudomonas aeruginosa [4]) was 14 mm, the “inhibition zone (IZ)” value (Listeria monocytogenes [5]) was 10 mm and the “inhibition zone (IZ)” value [6] was 15 mm. For the same compound, the “inhibition zone (IZ)” value (Bacillus cereus [7]) was 10 mm, the “inhibition zone (IZ)” value (Klebsiella pneumoniae [8]) was 18 mm and the “inhibition zone (IZ)” value (Micrococcus luteus [9]) was 8 mm.

`CN(C)[C@@H]1C(O)=C(C(N)=O)C(=O)[C@@]2(O)C(O)=C3C(=O)c4c(O)cccc4[C@@](C)(O)[C@H]3C[C@@H]12` [TETRACYCLINE] gave a zone of inhibition at 30 µg/disc (Staphylococcus aureus [10]) of 26 mm, a zone of inhibition at 30 µg/disc (Escherichia coli [11]) of 28 mm and a zone of inhibition at 30 µg/disc (Bacillus cereus [12]) of 26 mm. It also gave a zone of inhibition at 30 µg/disc (Pseudomonas aeruginosa [13]) of 25 mm, a zone of inhibition at 30 µg/disc (Proteus vulgaris [14]) of 22 mm and a zone of inhibition at 30 µg/disc (Listeria monocytogenes [15]) of 28 mm. For the same compound, the zone of inhibition at 30 µg/disc [16] was 24 mm, the zone of inhibition at 30 µg/disc (Klebsiella pneumoniae [17]) was 30 mm and the zone of inhibition at 30 µg/disc (Micrococcus luteus [18]) was 34 mm.

In the case of `CN[C@H](CC(C)C)C(=O)N[C@H]1C(=O)N[C@@H](CC(N)=O)C(=O)N[C@H]2C(=O)N[C@H]3C(=O)N[C@H](C(=O)N[C@H](C(=O)O)c4cc(O)cc(O)c4-c4cc3ccc4O)[C@H](O)c3ccc(c(Cl)c3)Oc3cc2cc(c3O[C@@H]2O[C@H](CO)[C@@H](O)[C@H](O)[C@H]2O[C@H]2C[C@](C)(N)[C@H](O)[C@H](C)O2)Oc2ccc(cc2Cl)[C@H]1O` [VANCOMYCIN], the zone of inhibition at 1 µg/disc (Staphylococcus aureus [19]) is reported as 13 mm, the zone of inhibition at 1 µg/disc (Bacillus cereus [20]) is reported as 20 mm and the zone of inhibition at 1 µg/disc (Klebsiella pneumoniae [21]) is reported as 22 mm. It also gave a zone of inhibition at 1 µg/disc (Pseudomonas aeruginosa [22]) of 18 mm, a zone of inhibition at 1 µg/disc (Micrococcus luteus [23]) of 10 mm and a zone of inhibition at 1 µg/disc (Escherichia coli [24]) of 22 mm. The zone of inhibition at 1 µg/disc (Proteus vulgaris [25]) was 34 mm, the zone of inhibition at 1 µg/disc [26] was 20 mm and the zone of inhibition at 1 µg/disc (Listeria monocytogenes [27]) was 26 mm.

GENTAMICIN gave an MIC (Listeria monocytogenes [28]) of 12.5 µg/mL, an MIC (Micrococcus luteus [29]) of 6.25 µg/mL and an MIC (Pseudomonas aeruginosa [30]) of 6.25 µg/mL. It also gave an MIC [31] of 12.5 µg/mL, an MIC (Proteus vulgaris [32]) of 25 µg/mL and an MIC (Escherichia coli [33]) of 6.25 µg/mL. It also gave an MIC (Bacillus cereus [34]) of 6.25 µg/mL, an MIC (Staphylococcus aureus [35]) of 25 µg/mL and an MIC (Klebsiella pneumoniae [36]) of 6.25 µg/mL.

For NYSTATIN, the inhibition zone (IZ) (Rhodotorula mucilaginosa [37]) was 20 mm, the inhibition zone (IZ) [38] was 21 mm and the MIC (Debaryomyces hansenii [39]) was 12.5 µg/mL. For the same compound, the inhibition zone (IZ) (Debaryomyces hansenii [40]) was 16 mm, the MIC (Kluyveromyces marxianus [41]) was 6.25 µg/mL and the MIC (Candida albicans) was 6.25 µg/mL. It also gave an MIC [42] of 3.12 µg/mL, an MIC (Rhodotorula mucilaginosa [43]) of 3.12 µg/mL and an inhibition zone (IZ) (Kluyveromyces marxianus [44]) of 18 mm.
